{"source": "patent US11179382B2", "about": "“Methods of reversing normal aging process and extending lifespan” (MyMD Pharmaceuticals (Florida), Inc., priority 2015, dated 2021)", "key": {"MAO-A": {"biological_target": "T1, MAO-A (Homo sapiens, UniProt P21397)", "T1 construct": "purchased", "T1 sequence (P21397 1-527)": "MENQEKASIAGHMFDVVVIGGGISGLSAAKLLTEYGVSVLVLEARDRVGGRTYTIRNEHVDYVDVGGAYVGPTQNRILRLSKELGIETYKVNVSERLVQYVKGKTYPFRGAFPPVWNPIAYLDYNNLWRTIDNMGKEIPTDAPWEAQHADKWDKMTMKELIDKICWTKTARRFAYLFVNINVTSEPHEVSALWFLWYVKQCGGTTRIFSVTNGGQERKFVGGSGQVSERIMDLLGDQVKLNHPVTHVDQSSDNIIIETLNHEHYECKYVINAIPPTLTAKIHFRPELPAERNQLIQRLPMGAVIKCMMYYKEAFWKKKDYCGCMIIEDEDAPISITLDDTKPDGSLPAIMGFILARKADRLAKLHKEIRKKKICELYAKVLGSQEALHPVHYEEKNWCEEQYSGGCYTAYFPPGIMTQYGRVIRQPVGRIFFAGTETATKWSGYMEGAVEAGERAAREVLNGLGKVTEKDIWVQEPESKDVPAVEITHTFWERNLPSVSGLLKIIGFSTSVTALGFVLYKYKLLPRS", "experiment": "MAO-Glo luminescent assay, MAO-A inhibition", "format": "biochemical", "details": "compared among isomyosmine, myosmine, anatabine, anabasine, nornicotine; clorgyline positive control", "description": "(§1) This example describes experiments for determining monoamine oxidase (MAO) inhibition for isomyosmine and other alkaloids. MAOs are enzymes located on the outer membrane of mitochondria and are involved in the catabolism of monoamine neurotransmitters. There are two well-characterized isoenzymes: MAO-A, which predominantly catabolizes serotonin and norepinephrine, and MAO-B, which preferentially catabolizes benzylamine and phenylethylamine. Dopamine and tyramine are metabolized by both isoforms.\n(§2) To detect the activity of MAO, a luminescent method (MAO-Glo Assay kit, from Promega, Cat #V1401) was used. In this method, a MAO substrate (a derivative of beetle luciferin provided in the kit) is mixed with the compound to be tested (in this case, myosmine and control compounds). Then, the MAO enzymes (either A or B, purchased separately) are added to the mixture and incubated with the reaction for 1 hour at room temperature. The MAO enzymes, if not inhibited by the test compound, will convert the substrate into methyl ester luciferin. Finally, a luciferin detection reagent (provided by the kit) is added (20 minutes at room temperature) to stop the MAO reaction and convert methyl ester luciferin into D-luciferin. […] The luminescent signal is measured and recorded using a luminometer. […]"}, "MAO-B": {"biological_target": "T2, MAO-B (Homo sapiens, UniProt P27338)", "T2 construct": "purchased", "T2 sequence (P27338 1-520)": "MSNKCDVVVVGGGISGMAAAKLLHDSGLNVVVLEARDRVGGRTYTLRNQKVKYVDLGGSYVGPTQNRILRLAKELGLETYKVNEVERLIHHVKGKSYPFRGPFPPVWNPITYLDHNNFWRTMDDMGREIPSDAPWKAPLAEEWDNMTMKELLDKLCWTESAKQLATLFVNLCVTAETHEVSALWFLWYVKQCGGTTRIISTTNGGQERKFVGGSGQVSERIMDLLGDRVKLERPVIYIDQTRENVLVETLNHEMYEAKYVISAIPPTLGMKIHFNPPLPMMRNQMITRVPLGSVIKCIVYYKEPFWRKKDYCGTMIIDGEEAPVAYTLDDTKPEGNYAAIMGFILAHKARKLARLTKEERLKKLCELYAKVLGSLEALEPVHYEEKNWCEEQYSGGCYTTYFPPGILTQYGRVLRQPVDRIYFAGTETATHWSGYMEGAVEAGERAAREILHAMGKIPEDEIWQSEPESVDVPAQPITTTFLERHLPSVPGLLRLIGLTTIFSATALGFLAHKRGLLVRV", "experiment": "MAO-Glo luminescent assay, MAO-B inhibition", "format": "biochemical", "details": "compared among isomyosmine, myosmine, anatabine, anabasine, nornicotine", "description": "as §1, §2"}, "[1]": {"test_system": "stage-four cancer patient diagnosed with autoimmune amyloidosis", "experiment": "Treatment of a stage-four cancer patient with autoimmune amyloidosis; immunoglobulin light chain Kappa/Lambda detection in blood", "format": "in vivo, human", "details": "for Lambda Light Chains / Free Light Chains Ratio / Kappa Light Chains: 250 mg daily; for Lambda Light Chains: initial 6.5, standard range 5.7-26.3; for Free Light Chains Ratio: initial 75.38, standard range 0.26-1.65; for Kappa Light Chains: initial 490.0, standard range 3.3-19.4", "description": "This example illustrates treating a stage-four cancer patient who had been diagnosed with autoimmune amyloidosis. At the time treatment began, the individual was bedridden under hospice care and told they had only a few days to live. The individual was administered a daily dose of 250 mg isomyosmine.\nThe patient's blood was tested using conventional immunoglobulin light chain Kappa/Lambda detection. The immunoglobulin kappa and lambda (Ig κ/λ) in situ hybridization (ISH) system is designed for the detection of human kappa and lambda immunoglobulin light chain messenger RNA (mRNA) in tissue sections and blood and bone marrow smears. The system uses biotin-labeled oligonucleotide probes. The probe-mRNA duplex is indirectly detected using an enzyme-conjugated antibody targeting the biotin conjugate. For color development, a chromogenic substrate is added. Enzymatic reaction of the chromogenic substrate leads to the formation of a color precipitate that is visualized by light microscopy."}, "[2]": {"test_system": "herpes labialis (herpes simplex)", "experiment": "Treatment of herpes labialis (cold sores) in an individual", "format": "in vivo, human", "details": "100 mg dose upon first feeling the onset of a cold sore", "description": "This example illustrates administering isomyosmine to treat herpes labialis (cold sores), a type of herpes simplex occurring on the lip. An individual who experiences periodic outbreaks of herpes labialis was administered a 100 mg dose of isomyosmine upon first feeling the onset of a cold sore."}, "[3]": {"test_system": "individuals experiencing high blood pressure", "experiment": "Treatment of individuals experiencing high blood pressure", "format": "in vivo, human", "details": "100 mg per day", "description": "(§3) This example illustrates administering isomyosmine to treat high blood pressure. Twelve individuals experiencing high blood pressure were each administered isomyosmine at dose of 100 mg per day. […] The blood pressure of one of the individuals was measured to be 145/86 mmHg without isomyosmine in the bloodstream and was measured to be 109/59 mmHg while being treated with isomyosmine. Another of the individuals was being treated for type II diabetes at the beginning of the treatment."}, "[4]": {"test_system": "individual being treated for type II diabetes", "experiment": "Individual with type II diabetes treated with isomyosmine", "format": "in vivo, human", "details": "one individual, 100 mg per day, following three months of treatment; taken off existing diabetes medication", "description": "as §3"}, "[5]": {"test_system": "individuals (peripheral capillary oxygen saturation)", "experiment": "Blood oxygen saturation (SpO2) by pulse oximetry in individuals", "format": "in vivo, human", "details": "one hour after a single dose (50-100 mg), seven individuals", "description": "This example illustrates the effect of isomyosmine on normal blood oxygen saturation levels (SpO2). SpO2 refers to peripheral capillary oxygen saturation, an estimate of the amount of oxygen in the blood. More specifically, it is the percentage of oxygenated hemoglobin (hemoglobin containing oxygen) compared to the total amount of hemoglobin in the blood (oxygenated and non-oxygenated hemoglobin). SpO2 can be measured by pulse oximetry, an indirect, non-invasive method. It works by emitting and then absorbing a light wave passing through blood vessels (or capillaries) in the fingertip. A variation of the light wave passing through the finger will give the value of the SpO2 measurement because the degree of oxygen saturation causes variations in the blood's color."}, "surgical incisions": {"test_system": "surgical incisions", "experiment": "Topical administration for wound healing", "format": "in vivo, human", "details": "e.g., avoid scarring around surgical incisions", "description": "In another aspect, a method of treating a wound comprises administering to an individual in need thereof a pharmaceutical composition containing a therapeutically effective amount of isomyosmine or a pharmaceutically acceptable salt thereof."}}, "note": "“And” between values parts separate entries of the source, which are not always exact repeats. Equal values may be shown once. “Also recorded” adds a separate entry of the source."}
{"compound": "C1=NC(c2cccnc2)CC1", "note": "(stereo not shown) [isomyosmine, 3-(3,4-dihydro-2H-pyrrol-2-yl)-pyridine]", "values": [{"measurement": "inhibiting the enzymatic activity of MAO-A (result in words, FIG. 3)", "setting": "MAO-A", "value": "most potent of the five; also recorded: potent inhibitor"}, {"measurement": "inhibiting the activity of MAO-B (result in words, FIG. 4)", "setting": "MAO-B", "value": "most potent among the five alkaloids tested; also recorded: potent inhibitor"}, {"measurement": "Lambda Light Chains", "setting": "[1]; 3 weeks", "value": 10.9, "unit": "mg/L"}, {"measurement": "Free Light Chains Ratio", "setting": "[1]; 3 weeks", "value": 55.23}, {"measurement": "Kappa Light Chains", "setting": "[1]; 3 weeks", "value": 602.0, "unit": "mg/L"}, {"measurement": "Lambda Light Chains", "setting": "[1]; 9 weeks", "value": 9.2, "unit": "mg/L"}, {"measurement": "Free Light Chains Ratio", "setting": "[1]; 9 weeks", "value": 42.83}, {"measurement": "Kappa Light Chains", "setting": "[1]; 9 weeks", "value": 394.0, "unit": "mg/L"}, {"measurement": "Lambda Light Chains", "setting": "[1]; 12 weeks", "value": 7.1, "unit": "mg/L"}, {"measurement": "Free Light Chains Ratio", "setting": "[1]; 12 weeks", "value": 29.58}, {"measurement": "Kappa Light Chains", "setting": "[1]; 12 weeks", "value": 210.0, "unit": "mg/L"}, {"measurement": "Lambda Light Chains", "setting": "[1]; 14 weeks", "value": 3.0, "unit": "mg/L"}, {"measurement": "Free Light Chains Ratio", "setting": "[1]; 14 weeks", "value": 64.33}, {"measurement": "Kappa Light Chains", "setting": "[1]; 14 weeks", "value": 193.0, "unit": "mg/L"}, {"measurement": "Lambda Light Chains", "setting": "[1]; 17 weeks", "value": 3.6, "unit": "mg/L"}, {"measurement": "Free Light Chains Ratio", "setting": "[1]; 17 weeks", "value": 28.89}, {"measurement": "Kappa Light Chains", "setting": "[1]; 17 weeks", "value": 104.0, "unit": "mg/L"}, {"measurement": "individual's symptoms", "setting": "[1]; daily dose of 250 mg, within two weeks of treatment, able to get out of bed and walk around", "value": "remarkably improved"}, {"measurement": "outbreak of cold sore", "setting": "[2]", "value": "effective to prevent the outbreak of the cold sore"}, {"measurement": "blood pressure while being treated", "setting": "[3]; one individual, 145/86 mmHg without isomyosmine in the bloodstream", "value": "109/59"}, {"measurement": "change in blood pressure during treatment", "setting": "[3]; twelve individuals", "value": "reduction in blood pressure"}, {"measurement": "symptoms of diabetes", "setting": "[4]", "value": "no symptoms of diabetes"}, {"measurement": "blood oxygenation (result in words)", "setting": "[5]", "value": "significant increase in blood oxygenation"}, {"measurement": "Dosed SpO2", "setting": "[5]; base SpO2 94.0-97.0", "value": "98.0 (5×) and 99.0 (2×)"}, {"measurement": "wound healing (result in words)", "setting": "surgical incisions", "value": "dramatically improve healing"}]}
